# Source: patent US20160030391A1, “METHODS AND COMPOSITIONS FOR IMPROVING COGNITIVE FUNCTION” (THE JOHNS HOPKINS UNIVERSITY, priority 2013, published 2016)
# How the values were obtained:
# [1] = test system: HPC neurons in saline-treated and MAM-treated animals; conditions: cited from earlier work
# [2] = test system: ventral tegmental dopamine (DA) neurons of MAM rats; conditions: cited from earlier work
# MAM-treated rats = conditions: cited from earlier work
# [3] = test system: Memory-impaired aged rats; test: Radial Arm Maze task, 2-hr delay, acute brivaracetam or seletracetam; format: in vivo, rat; conditions: 0.0625-4 mg/kg i.p. 30-40 min prior to test sessions; repeated measures ANOVA
# Method: (§1) The radial arm maze experiments used acute administration of seletracetam (0-4 mg/kg), brivaracetam (0-4 mg/kg), or saline vehicle given by intraperitoneal injection (in a volume of 1 ml/kg) 30-40 min prior to test sessions. In the chronic treatment experiment, memory-impaired aged rats were implanted subcutaneously in the intrascapular region with osmotic mini-pumps (ALZET, Durect Corporation, Cupertino, Calif.) with brivaracetam (2 mg/kg/day) or saline vehicle starting two weeks prior to assessment in the water maze.
# A radial arm maze (RAM) task was used to assess effects of acute drug treatment with seletracetam and brivaracetam. This protocol allowed within-subject assessment across drugs at different doses. The radial maze consisted of eight arms projecting from each side of an octagonal center platform, with a food well located at the distal end of each arm. Plexiglas blocks could be positioned to prevent entry into any arm. Extra-maze cues were provided in the room surrounding the maze and illumination was provided by an overhead light.
# Pre-training, as described in detail in Chappell et al. Neuropharmacology 37: 481-487, (1998), consisted of habituation, standard win-shift training, and win-shift training with delays interposed between information and memory test phases. […]
# [4] = test system: Memory-impaired aged rats; test: water maze probe test after chronic brivaracetam (osmotic mini-pumps); format: in vivo, rat; conditions: brivaracetam 2 mg/kg/day, 14 days
# Method: as §1
# Rats were trained and tested in a novel water maze environment to assess the effect of drug treatment. The water maze used here was housed in a different building and was surrounded by curtains with a novel set of patterns relative to the maze used for initial assessment of cognitive status. The training protocol consisted of 6 trials per day for 2 days to locate a submerged escape platform. On each trial, a rat was released in the maze from one of four equally spaced starting positions around the perimeter of the pool. The starting position varied from trial to trial. […] The rat was then removed from the platform and placed in a holding cage for another 40 s before the next trial. Approximately 24 hr after the last training trial, a probe test in the absence of the escape platform was given to assess spatial memory.
smiles,measurement,setting,value
C#Cc1ccc2c(c1)C(c1ccccc1F)=N[C@H](C)c1c(C(=O)OCC)ncn1-2 [SH-053-2′F—R—CH3],cortical-evoked responses of HPC neurons,[1],diminished
same,number of spontaneously active DA neurons in the ventral tegmental area (VTA) of MAM rats,[2]; administered systemically and directly infused into the ventral HPC,reduces
same,increased locomotor response to amphetamine in MAM-treated rats,MAM-treated rats; following the α5GABAAR PAM treatment,reduced
"NC1=N[C@H](O)[C@H]2[C@H]3O[C@]4(O)O[C@@H]([C@@H](O)[C@@]2(N1)[C@@H]4O)[C@]3(O)CO [TTX, tetrodotoxin]",elevated DA neuron population activity,"[2]; rat, in vivo",completely reversed
same,augmented amphetamine-induced locomotor behavior,"MAM-treated rats; rat, in vivo",normalized
CCC[C@@H]1CC(=O)N([C@@H](CC)C(N)=O)C1 [brivaracetam],"number of errors in the retention phase after the 2-hr delay, effect of dose",[3],significant effect as a function of dose
same,spatial bias for the target quadrant compared to the other quadrants,[4],significant spatial bias
same,time in the target annulus vs vehicle-treated rats,[4],significantly more time
same,time in the target quadrant vs vehicle-treated rats,[4],significantly more time
CC[C@@H](C(N)=O)N1C[C@H](C=C(F)F)CC1=O [seletracetam],"number of errors in the retention phase after the 2-hr delay, effect of dose",[3],significant effect as a function of dose
